# Columns and labels:
# human cell lines = conditions: up to a concentration of 100 μM
# Description: (§1) MCF7 cell line (human breast adenocarcinoma, morphology: epithelial-like, ATCC: HTB-22), A549 cell […]
# (§2) keratinocyte, morphology: epidermal, CSL Cell Lines Service GmbH); were cultured in Dulbecco’s Modified Eagle’s Medium (DMEM, Corning) with phenol red, supplemented with 10% fetal bovine serum (FBS) and with 1% streptomycin/penicillin. […]
# (§3) from metastatic site: brain, ATCC: HTB-81) and MCR-5 cell line (primary line of human pulmonary […]
# (§4) 10% fetal bovine serum (FBS). Cultures were incubated at 37 °C under a humidified atmosphere containing 5% CO2. Cells were transferred using a solution containing 0.05% trypsin and 0.5 mM EDTA.
# (§5) All media and other ingredients were purchased from ALAB, Poland.
# Cytotoxicity was assessed by MTT assay performed according the protocols described elsewhere.S1 In brief, 1×10^4 cells per well, seeded in 96-well flat bottom microtiter plate, were incubated with the tested compounds (in the appropriate media) at various range of concentrations for 24 h. […] After next 72 h cell viability was determined using the Hill equation (Origin 9.0) with regard to the untreated cells (control), where y0 – untreated cell control (which was set to 100% viability), y100 – a lysis control (where the cells were treated with 0.5% triton X-100 was set to 0% […]
# Determined values of IC50 are given as mean + S.D. (Standard Deviation). […]
# MCF-7 = test: MTT survival test, surviving fraction (Table S3); type: cell-based, human
# Description: (§6) 24, and 72 h. After each incubation time, the cells were washed with PBS. Then, fresh medium (supplemented with 10% FSB) was added, and the cells were incubated under standard conditions for another 24 h (6h + 24h, 24h + 24h, 72h + 24h). After this time, the MTT survival test was done. Surviving fraction given in % was estimated with relation to untreated cells. In the case of 6h + 24h and 24h + 24h approaches, the cells were seeded at 10 000 cells per well, while in the case of 72h + 24h at […]
# A549 [1] = test: MTT survival test, surviving fraction (Table S3); type: cell-based, human
# Description: as §6
# PANC-1 [2] = test: MTT survival test, surviving fraction (Table S3); type: cell-based, human
# Description: as §6
# HaCat [3] = test: MTT survival test, surviving fraction (Table S3); type: cell-based, human
# Description: as §6
# DU-145 [4] = test: MTT survival test, surviving fraction (Table S3); type: cell-based, human
# Description: as §6
# MRC5 = test: MTT cytotoxicity assay (IC50); type: cell-based, human; conditions: MRC5 normal cells, after 72 h incubation, MTT, vs untreated control cells; read-out: IC50
# Description: as §1, §2, §3, §4, §5
# (§7) Cytotoxicity was assessed by MTT assay performed according the protocols described elsewhere.S1 In brief, 1×10^4 cells per well, seeded in 96-well flat bottom microtiter plate, were incubated with the tested compounds (in the appropriate media) at various range of concentrations for 24 h. After that time, solutions of compounds were washed out, cells were washed three times with PBS and fresh medium was applied. After next 72 h cell viability was determined using the Hill equation (Origin 9.0) with regard to the untreated cells (control), where y0 – untreated cell control (which was set to 100% viability), y100 – a lysis control (where the cells were treated with 0.5% triton X-100 was set to 0% […]
# (§8) [c] at which the viability of the cells reaches 50%, H – the Hill coefficient (describing cooperativity):
# (§9) Each compound concentration was tested in five replicates and repeated at least three times.
# (§10) Determined values of IC50 are given as mean + S.D. (Standard Deviation).
# (§11) Cisplatin was tested as a reference anticancer drug. […]
# A549 [5] = test: MTT cytotoxicity assay (IC50); type: cell-based, human; conditions: A549, after 72 h incubation, MTT, vs untreated control cells; read-out: IC50
# Description: as §1, §2, §3, §4, §5, §7, §8, §9, §10, §11
# MCF7 = test: MTT cytotoxicity assay (IC50); type: cell-based, human; conditions: MCF7, after 72 h incubation, MTT, vs untreated control cells; read-out: IC50
# Description: as §1, §2, §3, §4, §5, §7, §8, §9, §10, §11
# PANC-1 [6] = test: MTT cytotoxicity assay (IC50); type: cell-based, human; conditions: PANC-1, after 72 h incubation, MTT, vs untreated control cells; read-out: IC50
# Description: as §1, §2, §3, §4, §5, §7, §8, §9, §10, §11
# HaCat [7] = test: MTT cytotoxicity assay (IC50); type: cell-based, human; conditions: HaCat normal cells, after 72 h incubation, MTT, vs untreated control cells; read-out: IC50
# Description: as §1, §2, §3, §4, §5, §7, §8, §9, §10, §11
# DU-145 [8] = test: MTT cytotoxicity assay (IC50); type: cell-based, human; conditions: DU-145, after 72 h incubation, MTT, vs untreated control cells; read-out: IC50
# Description: as §1, §2, §3, §4, §5, §7, §8, §9, §10, §11
compound,measurement,setting,value
"O=[N+]([O-])[O-].[Ag+] [AgNO3, silver(I) nitrate]",cytotoxic effect of free Ag(I) salt,human cell lines,does not cause significant toxic effects
same,surviving fraction,"MCF-7; MCF-7, 6h + 24h, dil. 10 000x (stocks: diclofenac 0.918, PTA 0.483, AgNO3 0.326 mg/mL)",59.2 ± 8.2%
same,surviving fraction,"MCF-7; MCF-7, 6h + 24h, dil. 1000x (stocks: diclofenac 0.918, PTA 0.483, AgNO3 0.326 mg/mL)",62.7 ± 6.3%
same,surviving fraction,"MCF-7; MCF-7, 24h + 24h, dil. 10 000x (stocks: diclofenac 0.918, PTA 0.483, AgNO3 0.326 mg/mL)",62.1 ± 5.5%
same,surviving fraction,"MCF-7; MCF-7, 24h + 24h, dil. 1000x (stocks: diclofenac 0.918, PTA 0.483, AgNO3 0.326 mg/mL)",38.5 ± 7.3%
same,surviving fraction,"MCF-7; MCF-7, 72h + 24h, dil. 10 000x (stocks: diclofenac 0.918, PTA 0.483, AgNO3 0.326 mg/mL)",56.8 ± 6.2%
same,surviving fraction,"MCF-7; MCF-7, 72h + 24h, dil. 1000x (stocks: diclofenac 0.918, PTA 0.483, AgNO3 0.326 mg/mL)",36.0 ± 8.4%
same,surviving fraction,"A549 [1]; A549, 6h + 24h, dil. 10 000x (stocks: diclofenac 0.918, PTA 0.483, AgNO3 0.326 mg/mL)",68.1 ± 6.2%
same,surviving fraction,"A549 [1]; A549, 6h + 24h, dil. 1000x (stocks: diclofenac 0.918, PTA 0.483, AgNO3 0.326 mg/mL)",48.9 ± 6.5%
same,surviving fraction,"A549 [1]; A549, 24h + 24h, dil. 10 000x (stocks: diclofenac 0.918, PTA 0.483, AgNO3 0.326 mg/mL)",57.4 ± 3.8%
same,surviving fraction,"A549 [1]; A549, 24h + 24h, dil. 1000x (stocks: diclofenac 0.918, PTA 0.483, AgNO3 0.326 mg/mL)",31.2 ± 5.5%
same,surviving fraction,"A549 [1]; A549, 72h + 24h, dil. 10 000x (stocks: diclofenac 0.918, PTA 0.483, AgNO3 0.326 mg/mL)",55.8 ± 8.1%
same,surviving fraction,"A549 [1]; A549, 72h + 24h, dil. 1000x (stocks: diclofenac 0.918, PTA 0.483, AgNO3 0.326 mg/mL)",34.1 ± 5.3%
same,surviving fraction,"PANC-1 [2]; PANC-1, 6h + 24h, dil. 10 000x (stocks: diclofenac 0.918, PTA 0.483, AgNO3 0.326 mg/mL)",76.2 ± 7.4%
same,surviving fraction,"PANC-1 [2]; PANC-1, 6h + 24h, dil. 1000x (stocks: diclofenac 0.918, PTA 0.483, AgNO3 0.326 mg/mL)",65.89 ± 4.6%
same,surviving fraction,"PANC-1 [2]; PANC-1, 24h + 24h, dil. 10 000x (stocks: diclofenac 0.918, PTA 0.483, AgNO3 0.326 mg/mL)",65.8 ± 6.6%
same,surviving fraction,"PANC-1 [2]; PANC-1, 24h + 24h, dil. 1000x (stocks: diclofenac 0.918, PTA 0.483, AgNO3 0.326 mg/mL)",44.2 ± 9.2%
same,surviving fraction,"PANC-1 [2]; PANC-1, 72h + 24h, dil. 10 000x (stocks: diclofenac 0.918, PTA 0.483, AgNO3 0.326 mg/mL)",65.8 ± 6.1%
same,surviving fraction,"PANC-1 [2]; PANC-1, 72h + 24h, dil. 1000x (stocks: diclofenac 0.918, PTA 0.483, AgNO3 0.326 mg/mL)",55.4 ± 6.7%
same,surviving fraction,"HaCat [3]; 6h + 24h, dil. 10 000x (stocks: diclofenac 0.918, PTA 0.483, AgNO3 0.326 mg/mL)",88.1 ± 4.2%
same,surviving fraction,"HaCat [3]; 6h + 24h, dil. 1000x (stocks: diclofenac 0.918, PTA 0.483, AgNO3 0.326 mg/mL)",76.7 ± 6.8%
same,surviving fraction,"HaCat [3]; 24h + 24h, dil. 10 000x (stocks: diclofenac 0.918, PTA 0.483, AgNO3 0.326 mg/mL)",72.7 ± 8.1%
same,surviving fraction,"HaCat [3]; 24h + 24h, dil. 1000x (stocks: diclofenac 0.918, PTA 0.483, AgNO3 0.326 mg/mL)",41.6 ± 6.9%
same,surviving fraction,"HaCat [3]; 72h + 24h, dil. 10 000x (stocks: diclofenac 0.918, PTA 0.483, AgNO3 0.326 mg/mL)",70.5 ± 5.8%
same,surviving fraction,"HaCat [3]; 72h + 24h, dil. 1000x (stocks: diclofenac 0.918, PTA 0.483, AgNO3 0.326 mg/mL)",65.2 ± 6.3%
same,surviving fraction,"DU-145 [4]; Du-145, 6h + 24h, dil. 10 000x (stocks: diclofenac 0.918, PTA 0.483, AgNO3 0.326 mg/mL)",74.5 ± 8.8%
same,surviving fraction,"DU-145 [4]; Du-145, 6h + 24h, dil. 1000x (stocks: diclofenac 0.918, PTA 0.483, AgNO3 0.326 mg/mL)",62.87 ± 5.9%
same,surviving fraction,"DU-145 [4]; Du-145, 24h + 24h, dil. 10 000x (stocks: diclofenac 0.918, PTA 0.483, AgNO3 0.326 mg/mL)",58.8 ± 7.3%
same,surviving fraction,"DU-145 [4]; Du-145, 24h + 24h, dil. 1000x (stocks: diclofenac 0.918, PTA 0.483, AgNO3 0.326 mg/mL)",36.7 ± 7.1%
same,surviving fraction,"DU-145 [4]; Du-145, 72h + 24h, dil. 10 000x (stocks: diclofenac 0.918, PTA 0.483, AgNO3 0.326 mg/mL)",56.1 ± 5.9%
same,surviving fraction,"DU-145 [4]; Du-145, 72h + 24h, dil. 1000x (stocks: diclofenac 0.918, PTA 0.483, AgNO3 0.326 mg/mL)",42.8 ± 5.9%
N.N.[Cl][Pt][Cl] [cisplatin],IC50,MRC5,31.5 ± 4.1 µM
same,IC50,A549 [5],> 100 µM
same,IC50,MCF7,50.9 ± 7.6 µM
same,IC50,PANC-1 [6],12.5 ± 1.3 µM
same,IC50,HaCat [7],26.4 ± 2.7 µM
same,IC50,DU-145 [8],> 100 µM
